Results: ChEMBL document CHEMBL1201862, “PubChem BioAssay data set” (2004)
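Exposure lasted 48 hours, with cells grown in 96-well plates and compounds tested at five concentrations. GI50 is the concentration that inhibits growth by half.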 Activity calls are given as the source filed them. Cut-off read from the data, not from the text of the source: active = GI50 up to about 1.1 µM and inactive = higher.

Key:
Assay in all cases: DTP human tumour cell line panel, 48 h
[1] = test system: UACC-257
[2] = test system: NCI-H226
[3] = test system: MCF7
[4] = test system: BT-549
[5] = test system: HT-29
[6] = test system: CAKI-1
[7] = test system: COLO 205
[8] = test system: T47D
[9] = test system: NCI-H522
[10] = test system: NCI-H23
[11] = test system: A498
[12] = test system: SF-268
[13] = test system: MOLT-4
[14] = test system: OVCAR-5
[15] = test system: M14
[16] = test system: NCI/ADR-RES
[17] = test system: SK-OV-3
[18] = test system: OVCAR-8
[19] = test system: DU-145

SMILES	GI50 [1]	GI50 [2]	GI50 [3]	GI50 [4]	GI50 [5]	GI50 [6]	GI50 [7]	GI50 [8]	GI50 [9]	GI50 [10]	GI50 [11]	GI50 [12]	GI50 [13]	GI50 [14]	GI50 [15]	GI50 [16]	GI50 [17]	GI50 [18]	GI50 [19]
O=c1c(Cc2ccccc2)c(-c2ccccc2)[nH]n1C1=NCCN1	52.6 µM (inactive)	46 µM (inactive)	40.1 µM (inactive)	> 100 µM (inactive)	24.2 µM (inactive)	72.1 µM (inactive)	35.2 µM (inactive)	45.3 µM (inactive)	40.5 µM (inactive)	62.5 µM (inactive)	> 100 µM (inactive)	28.4 µM (inactive)	35.5 µM (inactive)	72.6 µM (inactive)	25.3 µM (inactive)	27.7 µM (inactive)	> 100 µM (inactive)	40 µM (inactive)	–
Cc1cc(S(=O)(=O)N2CCNNC2=O)c(S)cc1Cl	> 100 µM (inactive)	> 100 µM (inactive)	77.3 µM (inactive)	20.8 µM (inactive)	–	33.5 µM (inactive)	> 100 µM (inactive)	–	22.5 µM (inactive)	–	> 100 µM (inactive)	> 100 µM (inactive)	31.6 µM (inactive)	> 100 µM (inactive)	41.6 µM (inactive)	> 100 µM (inactive)	–	> 100 µM (inactive)	> 100 µM (inactive)
COc1ccc(C2c3cc4c(c(OC)c3CC3OCC(=O)C32)OCO4)cc1OC (stereo not drawn)	–	0.0385 µM (active)	0.0575 µM (active)	0.0914 µM (active)	< 0.01 µM (active)	0.0405 µM (active)	0.0267 µM (active)	–	< 0.01 µM (active)	0.0365 µM (active)	0.0783 µM (active)	0.416 µM (active)	0.13 µM (active)	0.153 µM (active)	0.0482 µM (active)	0.0377 µM (active)	0.0405 µM (active)	0.0601 µM (active)	0.0218 µM (active)
O=S1(=O)OCCOS(=O)(=O)C1(F)Br	> 100 µM (inactive)	> 100 µM (inactive)	> 100 µM (inactive)	–	> 100 µM (inactive)	> 100 µM (inactive)	> 100 µM (inactive)	> 100 µM (inactive)	> 100 µM (inactive)	> 100 µM (inactive)	–	> 100 µM (inactive)	> 100 µM (inactive)	> 100 µM (inactive)	> 100 µM (inactive)	> 100 µM (inactive)	> 100 µM (inactive)	> 100 µM (inactive)	> 100 µM (inactive)
Nn1nnc2ccccc21	> 100 µM (inactive)	> 100 µM (inactive)	> 100 µM (inactive)	> 100 µM (inactive)	> 100 µM (inactive)	–	> 100 µM (inactive)	> 100 µM (inactive)	–	> 100 µM (inactive)	> 100 µM (inactive)	> 100 µM (inactive)	> 100 µM (inactive)	> 100 µM (inactive)	> 100 µM (inactive)	> 100 µM (inactive)	> 100 µM (inactive)	> 100 µM (inactive)	> 100 µM (inactive)
O=C(Nc1ccc(Cl)cc1)c1cc2c(cc1Cl)SC(NNCCO)=NS2(=O)=O	> 100 µM (inactive)	> 100 µM (inactive)	98.9 µM (inactive)	> 100 µM (inactive)	> 100 µM (inactive)	> 100 µM (inactive)	49.7 µM (inactive)	24.8 µM (inactive)	–	> 100 µM (inactive)	17.6 µM (inactive)	> 100 µM (inactive)	> 100 µM (inactive)	–	> 100 µM (inactive)	> 100 µM (inactive)	> 100 µM (inactive)	> 100 µM (inactive)	> 100 µM (inactive)
CNc1nnc(CCCCCCCCc2nnc(NC)o2)o1	51.8 µM (inactive)	> 100 µM (inactive)	20.7 µM (inactive)	> 100 µM (inactive)	29.9 µM (inactive)	14.8 µM (inactive)	> 100 µM (inactive)	–	–	> 100 µM (inactive)	> 100 µM (inactive)	–	34.7 µM (inactive)	> 100 µM (inactive)	> 100 µM (inactive)	> 100 µM (inactive)	> 100 µM (inactive)	34.8 µM (inactive)	> 100 µM (inactive)
CC1=NOC2(C1)/C(=N/O)CCC/C2=N\O (stereo not drawn)	> 100 µM (inactive)	> 100 µM (inactive)	> 100 µM (inactive)	> 100 µM (inactive)	> 100 µM (inactive)	> 100 µM (inactive)	> 100 µM (inactive)	> 100 µM (inactive)	> 100 µM (inactive)	> 100 µM (inactive)	–	> 100 µM (inactive)	> 100 µM (inactive)	> 100 µM (inactive)	> 100 µM (inactive)	> 100 µM (inactive)	> 100 µM (inactive)	> 100 µM (inactive)	–
CC1CN(C)c2ccccc2N=C1NN (stereo not drawn)	> 100 µM (inactive)	> 100 µM (inactive)	–	> 100 µM (inactive)	> 100 µM (inactive)	> 100 µM (inactive)	> 100 µM (inactive)	–	> 100 µM (inactive)	> 100 µM (inactive)	> 100 µM (inactive)	> 100 µM (inactive)	> 100 µM (inactive)	> 100 µM (inactive)	> 100 µM (inactive)	> 100 µM (inactive)	> 100 µM (inactive)	> 100 µM (inactive)	> 100 µM (inactive)
Cn1c(=O)sc2cc(C(=S)N3CCC(Cc4ccccc4)CC3)ccc21	38.3 µM (inactive)	15.3 µM (inactive)	41.7 µM (inactive)	30.3 µM (inactive)	62.1 µM (inactive)	61.5 µM (inactive)	83.2 µM (inactive)	–	–	44.7 µM (inactive)	> 100 µM (inactive)	28.7 µM (inactive)	20.9 µM (inactive)	> 100 µM (inactive)	33.3 µM (inactive)	21.4 µM (inactive)	58.5 µM (inactive)	20.1 µM (inactive)	84.5 µM (inactive)
CC(NC(=O)c1ccc(NP(=O)(OCc2ccc([N+](=O)[O-])o2)N(C)CCCCCl)cc1)c1ccc(OCC2CCCCC2)c(C(N)=O)c1 (stereo not drawn)	13.4 µM (inactive)	16.4 µM (inactive)	3.15 µM (inactive)	–	18.3 µM (inactive)	26.4 µM (inactive)	10.9 µM (inactive)	5.37 µM (inactive)	15.5 µM (inactive)	16.9 µM (inactive)	16.7 µM (inactive)	13.3 µM (inactive)	9.71 µM (inactive)	25.4 µM (inactive)	–	61.8 µM (inactive)	21.6 µM (inactive)	31.6 µM (inactive)	29.3 µM (inactive)
N#Cc1nc(-c2ccccc2C(=O)O)oc1N	> 100 µM (inactive)	> 100 µM (inactive)	> 100 µM (inactive)	–	> 100 µM (inactive)	> 100 µM (inactive)	> 100 µM (inactive)	> 100 µM (inactive)	> 100 µM (inactive)	> 100 µM (inactive)	> 100 µM (inactive)	> 100 µM (inactive)	> 100 µM (inactive)	> 100 µM (inactive)	> 100 µM (inactive)	> 100 µM (inactive)	> 100 µM (inactive)	> 100 µM (inactive)	> 100 µM (inactive)
Cc1ccc(S(=O)(=O)Nc2cccc(C)c2C)cc1	30.8 µM (inactive)	56.4 µM (inactive)	–	–	74.1 µM (inactive)	–	59.7 µM (inactive)	–	–	28.1 µM (inactive)	> 100 µM (inactive)	86.7 µM (inactive)	45.5 µM (inactive)	57.7 µM (inactive)	37.9 µM (inactive)	–	56.9 µM (inactive)	72.4 µM (inactive)	–
CC(CO)(CBr)COC(=O)c1cc(Br)c(N)c(Br)c1 (stereo not drawn)	> 100 µM (inactive)	> 100 µM (inactive)	–	76.2 µM (inactive)	> 100 µM (inactive)	81.3 µM (inactive)	> 100 µM (inactive)	> 100 µM (inactive)	–	79.3 µM (inactive)	62.2 µM (inactive)	29.3 µM (inactive)	> 100 µM (inactive)	> 100 µM (inactive)	> 100 µM (inactive)	> 100 µM (inactive)	83.9 µM (inactive)	> 100 µM (inactive)	48.8 µM (inactive)
CN(C)CCNC(=O)Cn1ccc(=O)c2c([N+](=O)[O-])cccc21	> 100 µM (inactive)	> 100 µM (inactive)	> 100 µM (inactive)	> 100 µM (inactive)	> 100 µM (inactive)	> 100 µM (inactive)	> 100 µM (inactive)	> 100 µM (inactive)	> 100 µM (inactive)	> 100 µM (inactive)	> 100 µM (inactive)	> 100 µM (inactive)	> 100 µM (inactive)	> 100 µM (inactive)	> 100 µM (inactive)	–	> 100 µM (inactive)	> 100 µM (inactive)	> 100 µM (inactive)
CN(C(=O)c1cccs1)C(=S)N1CCN(c2ccccc2)CC1	> 100 µM (inactive)	> 100 µM (inactive)	> 100 µM (inactive)	> 100 µM (inactive)	> 100 µM (inactive)	–	> 100 µM (inactive)	> 100 µM (inactive)	> 100 µM (inactive)	> 100 µM (inactive)	–	> 100 µM (inactive)	51.8 µM (inactive)	> 100 µM (inactive)	> 100 µM (inactive)	–	–	> 100 µM (inactive)	> 100 µM (inactive)
c1ccc(C/C(=N\Nc2nc3ccccc3o2)c2ccccn2)cc1	0.0775 µM (active)	< 0.0483 µM (active)	< 0.01 µM (active)	0.342 µM (active)	< 0.01 µM (active)	0.0879 µM (active)	< 0.01 µM (active)	–	0.191 µM (active)	0.0382 µM (active)	0.369 µM (active)	0.0805 µM (active)	< 0.01 µM (active)	< 0.01 µM (active)	0.0382 µM (active)	0.0246 µM (active)	0.0237 µM (active)	0.0321 µM (active)	0.376 µM (active)
